This is an account of results in US5672472A, “Synthetic unrandomization of oligomer fragments” (ISIS Pharmaceuticals, Inc., priority 1994, dated 1997).

For experiment [1], the system named is ras 47-mer stem/loop RNA. Description: Gel-shift assay of random 2'-O-methyl oligonucleotide sets binding to ras RNA target. Conditions: for Kd: Table 3, 2'-O-methyl sets, ras RNA about 10 pM, 100 mM NaCl, 10 mM MgCl2, 4 h at 37° C., read-out: KD (set KD); for binding in gel shift (FIG. 2B) / shift of the target: Round 2; for binding in gel shift (FIG. 2B): sets at 1 and 10 μM. In general terms: Mobility shift assays separate free from complexed probe on a gel.

Experiment [2] has as its system target protein. Description: Gel shift assay of anion-exchange subfractions of oligonucleotide sets. Conditions: first round; sets subfractionated by charge. Format: binding. The method, then: An oligonucleotide analog group comprising four sets of oligonucleotides eight positions in length is prepared in accordance with Examples 3 and 6 wherein each of the sets has a different one of adenins, guanine, thymidine and cytosine in the 5th position, and the rest of the positions are randomized to provide the group: NNNNANNN, NNNNGNNN, NNNNTNNN, and NNNNCNNN. Each set is subfractionated by charge with an anion exchange column. Each subfraction is tested for affinity for the target protein by gel shift assay. […] In a further round, the 5th position is fixed to contain an adenins in the 5th position, and each set has a different nucleotide in the fourth position to provide the group NNNAANNN, NNNTANNN, NNNGANNN, and NNNCANNN. The sets are again subfractionated by charge with an anion exchange column and the subfractions are tested for affinity for the target protein by gel shift assay. The steps are repeated until each position is determined.

Experiment [3] relates to HIV tat protein. In words: Binding of oligonucleotide groups to HIV tat protein. Conditions: Example 27.
In experiment [4] the test system is protein CD4. Description: Gel shift of 5' end labeled oligonucleotide groups with CD4. Format: binding. Conditions: for binding to the protein CD4: 100 pmoles labeled group, FIG. 7.

What is called Kd is the free concentration of one partner at which half of the binding sites on the other are occupied at equilibrium, for simple one-to-one binding. Take NNCNCNCNN [NNXNCNCNN X=C]: in experiment [1] (Round 3, sets at 0.1 and 1 μM), the “shift of the target (FIG. 2C)” value is “greater than 50%”. Moreover, the Kd in experiment [1] worked out at 0.5 µM.

As to NNNNANNN [Set A], the “binding affinity of subfraction for the target protein” value in experiment [2] is listed as “highest binding affinity”.

Consider NNNNANNNN [NNNNXNNNN X=A], for which the “shift of ras target (FIG. 2A)” value in experiment [1] (Round 1, 100 uM) was “slight shift”. In experiment [1], the Kd was 22 µM.

With NNNNCNANN [NNNNCNXNN X=A], in experiment [1], the “binding in gel shift (FIG. 2B)” value was “minimal binding” and the Kd is more than 10 µM.

As to NNNNCNCNN [NNNNCNXNN X=C], the “shift of the target” value in experiment [1] (1 μM) is given as more than 25%; in experiment [1] (10 μM), “about 50%”. Besides, the Kd in experiment [1] is 4 µM.

As to NNNNCNGNN [NNNNCNXNN X=G], in experiment [1], the “binding in gel shift (FIG. 2B)” value is recorded as “minimal binding” and the Kd was more than 10 µM.

As for NNNNCNNNN [NNNNXNNNN X=C], in experiment [1] (Round 1, 50 uM oligonucleotide concentration), the “shift of the target to the bound form” value is reported as “more than 50%”. Further, in experiment [1], the Kd worked out at 10 µM.

Consider NNNNGNNNN [NNNNXNNNN X=G], for which, in experiment [1] (Round 1, sets at 5, 10, 50 and 100 μM), the “binding in gel shift (FIG. 2A)” value is given as “no binding”. The Kd in experiment [1] is more than 100 µM.

On to NNNNTNNNN, for which the “binding against the tat protein” value in experiment [3] is reported as “Binding has been observed”. The “binding to the protein CD4” value in experiment [4] (listed as phosphorothioate oligonucleotide) is recorded as “binding of the oligonucleotide to the protein”. Moreover, the “binding affinity for CD4 (FIG. 7 legend)” value in experiment [4] (100 pmoles, visible at 0.5 and 1 μG CD4, presence and absence of dIdC) is reported as “exhibited binding”.

In the case of NNNNTNNNN [2'-O-methyl set], in experiment [4], the “binding to the protein CD4” value is reported as “No binding”.
